#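 In this assay, cells in 96-well plates receive the compound at five concentrations for 48 hours. Endpoints are linearly interpolated between the surrounding concentrations. GI50: concentration for 50% inhibition of growth. TGI is the concentration that stops growth completely.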
# Experiments:
# Experiment in all cases: NCI anticancer screen, dose series, 48 h
# [1] = system: PC-3 prostate
# [2] = system: HS 578T breast
# [3] = system: COLO 205 colon
# [4] = system: SF-268 CNS
# [5] = system: SN12C renal
# [6] = system: SNB-19 CNS
# [7] = system: MOLT-4 leukemia
# [8] = system: HT29 colon
# [9] = system: HOP-62 NSCLC
# [10] = system: NCI-H460 lung
# [11] = system: MDA-MB-231 breast
# [12] = system: K-562 leukemia
# [13] = system: SK-MEL-2 melanoma
# [14] = system: BT-549 breast
# [15] = system: UO-31 renal
# [16] = system: HCC-2998 colon
# [17] = system: SNB-75 CNS
# [18] = system: RXF 393 renal
# [19] = system: M14 melanoma
# [20] = system: SF-539 CNS
# [21] = system: TK-10 renal
# [22] = system: SK-MEL-5 melanoma
# [23] = system: SF-295 CNS
# [24] = system: SR leukemia
# [25] = system: A549 NSCLC
# [26] = system: KM12 colon
# [27] = system: HL-60(TB) leukemia
# [28] = system: NCI-H522 lung
# [29] = system: CCRF-CEM leukemia
# [30] = system: U251 CNS
compound,measurement,setting,value
COc1ccc(C(=O)/C=C/c2cc(C(F)(F)F)cc(C(F)(F)F)c2)cc1S(N)(=O)=O,GI50,[1],2.19 µM
same,TGI,[1],5.99 µM
same,GI50,[2],2.68 µM
same,TGI,[2],9.86 µM
same,GI50,[3],2.02 µM
same,TGI,[3],3.94 µM
same,GI50,[4],2.38 µM
same,TGI,[4],7.48 µM
same,GI50,[5],1.47 µM
same,TGI,[5],2.86 µM
same,GI50,[6],1.6 µM
same,TGI,[6],2.98 µM
same,GI50,[7],1.79 µM
same,TGI,[7],9.16 µM
same,GI50,[8],1.26 µM
same,TGI,[8],2.77 µM
same,GI50,[9],2.22 µM
same,TGI,[9],4.4 µM
same,GI50,[10],1.56 µM
same,TGI,[10],3.28 µM
same,GI50,[11],1.57 µM
same,TGI,[11],3.11 µM
same,GI50,[12],0.788 µM
same,TGI,[12],> 100 µM
same,GI50,[13],1.74 µM
same,TGI,[13],3.25 µM
same,GI50,[14],2.27 µM
same,TGI,[14],3.93 µM
same,GI50,[15],1.45 µM
same,TGI,[15],2.76 µM
same,GI50,[16],1.54 µM
same,TGI,[16],2.87 µM
same,GI50,[17],1.38 µM
same,TGI,[17],3.33 µM
same,GI50,[18],1.76 µM
same,TGI,[18],3.34 µM
same,GI50,[19],1.92 µM
same,TGI,[19],4.85 µM
same,GI50,[20],1.68 µM
same,TGI,[20],3.07 µM
same,GI50,[21],2.05 µM
same,TGI,[21],3.86 µM
same,GI50,[22],1.73 µM
same,TGI,[22],3.15 µM
same,GI50,[23],1.7 µM
same,TGI,[23],3.1 µM
same,GI50,[24],0.498 µM
same,TGI,[24],> 100 µM
same,GI50,[25],1.83 µM
same,TGI,[25],5.64 µM
same,GI50,[26],2.07 µM
same,TGI,[26],4.92 µM
same,GI50,[27],1.75 µM
same,TGI,[27],6.29 µM
same,GI50,[28],1.56 µM
same,TGI,[28],3.24 µM
same,GI50,[29],0.299 µM
same,TGI,[29],> 100 µM
same,GI50,[30],1.29 µM

# — PubChem BioAssay (NCI)
